Test results published in patent US12122763B2, “Substituted piperidines for androgen receptor degradation” (UBIX THERAPEUTICS, INC., priority 2020, dated 2024).

Biological target: T1, Androgen Receptor (AR) protein (Homo sapiens, UniProt P10275, T878A)
T1 construct: endogenous in cells; host or cells: LNCaP
Assay: Androgen Receptor (AR) protein degradation assay in LNCaP cells, western blotting
Format: cell-based
Settings: 20 h; for inhibition at 0.01 µM: 0.01 μM compound; for inhibition at 0.1 µM: 0.1 μM compound; for inhibition at 1 µM: 1 μM compound; for inhibition at 10 µM: 10 μM compound
Procedure, shortened: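 LNCaP prostate cancer cells were cultured 3 days, then treated with compound for 20 h. Lysates in 1% SDS buffer were normalised by BCA, and 8 μg protein was run on 4–12% Bis-Tris gels. AR was immunoblotted with chemiluminescence, using GAPDH/β-actin as loading controls.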

T1 sequence (P10275 whole entry T878A): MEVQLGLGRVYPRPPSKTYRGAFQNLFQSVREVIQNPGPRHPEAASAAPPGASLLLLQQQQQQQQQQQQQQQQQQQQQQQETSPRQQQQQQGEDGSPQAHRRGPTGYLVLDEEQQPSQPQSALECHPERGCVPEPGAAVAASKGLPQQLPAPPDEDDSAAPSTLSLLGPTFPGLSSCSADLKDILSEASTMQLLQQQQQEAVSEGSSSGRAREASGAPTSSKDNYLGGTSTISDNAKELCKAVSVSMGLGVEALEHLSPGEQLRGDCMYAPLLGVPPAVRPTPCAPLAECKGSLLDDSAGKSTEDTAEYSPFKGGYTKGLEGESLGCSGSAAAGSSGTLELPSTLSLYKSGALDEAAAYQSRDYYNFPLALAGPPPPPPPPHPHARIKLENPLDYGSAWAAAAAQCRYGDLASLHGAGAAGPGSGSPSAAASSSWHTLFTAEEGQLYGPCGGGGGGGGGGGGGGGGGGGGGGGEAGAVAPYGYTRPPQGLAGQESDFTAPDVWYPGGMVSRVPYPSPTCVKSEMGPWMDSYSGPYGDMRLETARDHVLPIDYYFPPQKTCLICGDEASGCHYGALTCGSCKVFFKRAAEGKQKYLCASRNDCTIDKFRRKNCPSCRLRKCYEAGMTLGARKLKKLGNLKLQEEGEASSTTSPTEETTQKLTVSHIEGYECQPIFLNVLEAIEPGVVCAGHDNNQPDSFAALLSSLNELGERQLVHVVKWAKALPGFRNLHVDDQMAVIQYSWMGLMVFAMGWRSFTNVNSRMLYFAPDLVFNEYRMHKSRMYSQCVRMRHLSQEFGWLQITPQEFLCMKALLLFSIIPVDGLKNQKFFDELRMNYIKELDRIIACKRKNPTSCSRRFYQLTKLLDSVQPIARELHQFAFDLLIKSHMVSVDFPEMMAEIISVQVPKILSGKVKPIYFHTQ
T1 sequence (Q96SW2 whole entry partner): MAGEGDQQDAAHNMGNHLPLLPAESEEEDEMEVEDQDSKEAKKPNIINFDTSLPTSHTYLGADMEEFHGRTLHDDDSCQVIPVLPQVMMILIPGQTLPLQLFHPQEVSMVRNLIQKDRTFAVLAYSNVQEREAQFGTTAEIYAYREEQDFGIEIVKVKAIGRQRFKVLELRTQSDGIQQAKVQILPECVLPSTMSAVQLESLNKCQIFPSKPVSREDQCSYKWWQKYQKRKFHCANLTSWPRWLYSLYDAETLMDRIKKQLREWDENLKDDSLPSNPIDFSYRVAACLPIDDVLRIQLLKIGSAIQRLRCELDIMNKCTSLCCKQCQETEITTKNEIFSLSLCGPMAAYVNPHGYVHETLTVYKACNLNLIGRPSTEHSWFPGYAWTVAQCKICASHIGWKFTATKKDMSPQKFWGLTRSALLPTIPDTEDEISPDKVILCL

Structure (SMILES) | inhibition at 0.01 µM [%] | inhibition at 0.1 µM [%] | inhibition at 1 µM [%] | inhibition at 10 µM [%]
C[C@H]1CN(CC2CCN(c3ccc(C(=O)NC4CCC(=O)NC4=O)nc3)CC2)CCN1CC1CCN(c2ccc(NC(=O)C3CCN(c4ccc(C#N)c(C(F)(F)F)c4)CC3)nc2)CC1 (stereo partly drawn) [Example 109, 5-(4-(((S)-4-((1-(6-(1-(4-cyano-3-(trifluoromethyl)phenyl)piperidine-4-carboxamido)pyridin-3-yl)piperidin-4-yl)methyl)-3-methylpiperazin-1-yl)methyl)piperidin-1-yl)-N-(2,6-dioxopiperidin-3-yl)picolinamide] | 30 | 82 | 83 | 
C[C@@H]1CN(CC2CCN(c3ccc(NC(=O)C4CCN(c5ccc(C#N)c(C(F)(F)F)c5)CC4)nc3)CC2)CCN1CC1CCN(c2ccc3c(c2)C(=O)N(C2CCC(=O)NC2=O)C3=O)CC1 (stereo partly drawn) [Example 25, 1-(4-cyano-3-(trifluoromethyl)phenyl)-N-(5-(4-(((3R)-4-((1-(2-(2,6-dioxopiperidin-3-yl)-1,3-dioxoisoindolin-5-yl)piperidin-4-yl)methyl)-3-methylpiperazin-1-yl)methyl)piperidin-1-yl)pyridin-2-yl)piperidine-4-carboxamide] | 73 | 98 | 98 | 
N#Cc1ccc(N2CCC(C(=O)Nc3ccc(C#CC4CCN(CC5CCN(c6ccc7c(c6)C(=O)N(C6CCC(=O)NC6=O)C7=O)CC5)CC4)cn3)CC2)cc1C(F)(F)F (stereo not shown) [Example 131, 1-(4-cyano-3-(trifluoromethyl)phenyl)-N-(5-((1-((1-(2-(2,6-dioxopiperidin-3-yl)-1,3-dioxoisoindolin-5-yl)piperidin-4-yl)methyl)piperidin-4-yl)ethynyl)pyridin-2-yl)piperidine-4-carboxamide] | 28 | 66 | 82 | 87
N#Cc1ccc(N2CCC(C(=O)Nc3ccc(N4CC[C@@H](CN5CC6(CCN(c7ccc8c(c7)C(=O)N(C7CCC(=O)NC7=O)C8=O)CC6)C5)C4)cn3)CC2)cc1C(F)(F)F (stereo partly drawn) [Example 61, 1-(4-cyano-3-(trifluoromethyl)phenyl)-N-(5-((3S)-3-((7-(2-(2,6-dioxopiperidin-3-yl)-1,3-dioxoisoindolin-5-yl)-2,7-diazaspiro[3.5]nonan-2-yl)methyl)pyrrolidin-1-yl)pyridin-2-yl)piperidine-4-carboxamide] | 57 | 94.5 | 97.5 | 96
N#Cc1ccc(N2CCC(C(=O)Nc3ccc(N4CCC(CN5CCN(CC(=O)Nc6cccc(NC7CCC(=O)NC7=O)c6)CC5)CC4)cn3)CC2)cc1C(F)(F)F (stereo not shown) [Example 177, 1-(4-cyano-3-(trifluoromethyl)phenyl)-N-(5-(4-((4-(2-((3-((2,6-dioxopiperidin-3-yl)amino)phenyl)amino)-2-oxoethyl)piperazin-1-yl)methyl)piperidin-1-yl)pyridin-2-yl)piperidine-4-carboxamide] | 14 | 37 | 35 | 
N#Cc1ccc(N2CCC(C(=O)Nc3ccc(N4CCC(CN5CC6(CCN(c7ccc8c(c7)CN(C7CCC(=O)NC7=O)C8=O)CC6)C5)CC4)cn3)CC2)cc1C(F)(F)F (stereo not shown) [Example 135, 1-(4-cyano-3-(trifluoromethyl)phenyl)-N-(5-(4-((7-(2-(2,6-dioxopiperidin-3-yl)-1-oxoisoindolin-5-yl)-2,7-diazaspiro[3.5]nonan-2-yl)methyl)piperidin-1-yl)pyridin-2-yl)piperidine-4-carboxamide] | 35 | 94 | 85 | 
N#Cc1ccc(N2CCC(C(=O)Nc3ccc(N4CC5(CCN(CC6CN(c7ccc8c(c7)C(=O)N(C7CCC(=O)NC7=O)C8=O)C6)CC5)C4)cn3)CC2)cc1Cl (stereo not shown) [Example 124, 1-(3-chloro-4-cyanophenyl)-N-(5-(7-((1-(2-(2,6-dioxopiperidin-3-yl)-1,3-dioxoisoindolin-5-yl)azetidin-3-yl)methyl)-2,7-diazaspiro[3.5]nonan-2-yl)pyridin-2-yl)piperidine-4-carboxamide] | 52 | 88 | 96 | 
C[C@@H]1CN(CC2CCN(c3ccc4c(n3)CN(C3CCC(=O)NC3=O)C4=O)CC2)CCN1CC1CCN(c2ccc(NC(=O)C3CCN(c4ccc(C#N)c(C(F)(F)F)c4)CC3)nc2)CC1 (stereo partly drawn) [Example 44, 1-(4-cyano-3-(trifluoromethyl)phenyl)-N-(5-(4-(((2R)-4-((1-(6-(2,6-dioxopiperidin-3-yl)-5-oxo-6,7-dihydro-5H-pyrrolo[3,4-b]pyridin-2-yl)piperidin-4-yl)methyl)-2-methylpiperazin-1-yl)methyl)piperidin-1-yl)pyridin-2-yl)piperidine-4-carboxamide] | 80 | 98 | 93 | 
N#Cc1ccc(N2CCC(C(=O)Nc3ccc(N4CCC(CCN5CCN(c6ccc7c(c6)C(=O)N(C6CCC(=O)NC6=O)C7=O)CC5)CC4)cn3)CC2)cc1C(F)(F)F (stereo not shown) [Example 86, 1-(4-cyano-3-(trifluoromethyl)phenyl)-N-(5-(4-(2-(4-(2-(2,6-dioxopiperidin-3-yl)-1,3-dioxoisoindolin-5-yl)piperazin-1-yl)ethyl)piperidin-1-yl)pyridin-2-yl)piperidine-4-carboxamide] | 65 | 94 | 96 | 
N#Cc1ccc(N2CCC(C(=O)Nc3ccc(N4CCC(CN5CCN(C6CCN(c7ccc8c(c7)C(=O)N(C7CCC(=O)NC7=O)C8=O)CC6)CC5)CC4)cn3)CC2)cc1C(F)(F)F (stereo not shown) [Example 70, 1-(4-cyano-3-(trifluoromethyl)phenyl)-N-(5-(4-((4-(1-(2-(2,6-dioxopiperidin-3-yl)-1,3-dioxoisoindolin-5-yl)piperidin-4-yl)piperazin-1-yl)methyl)piperidin-1-yl)pyridin-2-yl)piperidine-4-carboxamide] | 85 | 99 | 99 | 97
N#Cc1ccc(N2CCN(C(=O)Nc3ccc(N4CCC(CN5CC6(CCN(c7ccc8c(c7)C(=O)N(C7CCC(=O)NC7=O)C8=O)CC6)C5)CC4)nc3)CC2)cc1Cl (stereo not shown) [Example 104, 4-(3-chloro-4-cyanophenyl)-N-(6-(4-((7-(2-(2,6-dioxopiperidin-3-yl)-1,3-dioxoisoindolin-5-yl)-2,7-diazaspiro[3.5]nonan-2-yl)methyl)piperidin-1-yl)pyridin-3-yl)piperazine-1-carboxamide] | -2 | -5 | 36 | 59
N#Cc1ccc(N2CCC(C(=O)Nc3ccc(N4CC(CN5CCN(C[C@H]6CCN(c7ccc8c(c7)C(=O)N(C7CCC(=O)NC7=O)C8=O)C6)CC5)C4)cn3)CC2)cc1C(F)(F)F (stereo partly drawn) [Example 28, 1-(4-cyano-3-(trifluoromethyl)phenyl)-N-(5-(3-((4-(((3R)-1-(2-(2,6-dioxopiperidin-3-yl)-1,3-dioxoisoindolin-5-yl)pyrrolidin-3-yl)methyl)piperazin-1-yl)methyl)azetidin-1-yl)pyridin-2-yl)piperidine-4-carboxamide] | 82 | 96 | 95 | 
N#Cc1ccc(N2CCC(C(=O)Nc3ccc(N4CCN(CCOC5CCN(c6ccc7c(c6)C(=O)N(C6CCC(=O)NC6=O)C7=O)CC5)CC4)cn3)CC2)cc1C(F)(F)F (stereo not shown) [Example 117, 1-(4-cyano-3-(trifluoromethyl)phenyl)-N-(5-(4-(2-((1-(2-(2,6-dioxopiperidin-3-yl)-1,3-dioxoisoindolin-5-yl)piperidin-4-yl)oxy)ethyl)piperazin-1-yl)pyridin-2-yl)piperidine-4-carboxamide] | 35 | 84 | 94 | 
C[C@H]1CN(CC2CCN(c3ccc(NC(=O)C4CCN(c5ccc(C#N)c(C(F)(F)F)c5)CC4)nc3)CC2)CCN1CC1CCN(c2ccc3c(n2)CN(C2CCC(=O)NC2=O)C3=O)CC1 (stereo partly drawn) [Example 48, 1-(4-cyano-3-(trifluoromethyl)phenyl)-N-(5-(4-(((3S)-4-((1-(6-(2,6-dioxopiperidin-3-yl)-5-oxo-6,7-dihydro-5H-pyrrolo[3,4-b]pyridin-2-yl)piperidin-4-yl)methyl)-3-methylpiperazin-1-yl)methyl)piperidin-1-yl)pyridin-2-yl)piperidine-4-carboxamide] | 59 | 94 | 87 | 
N#Cc1ccc(N2CCC(C(=O)Nc3ccc(N4CC5(CCN(CC6CCN(c7ccc8c(c7)C(=O)N(C7CCC(=O)NC7=O)C8=O)CC6)CC5)C4)cn3)CC2)cc1Cl (stereo not shown) [Example 122, 1-(3-chloro-4-cyanophenyl)-N-(5-(7-((1-(2-(2,6-dioxopiperidin-3-yl)-1,3-dioxoisoindolin-5-yl)piperidin-4-yl)methyl)-2,7-diazaspiro[3.5]nonan-2-yl)pyridin-2-yl)piperidine-4-carboxamide] | 71 | 76 | 74 | 
C[C@@H]1CN(CC2CCN(c3ccc(C(=O)NC4CCC(=O)NC4=O)nc3)CC2)CCN1CC1CCN(c2ccc(NC(=O)C3CCN(c4ccc(C#N)c(C(F)(F)F)c4)CC3)nc2)CC1 (stereo partly drawn) [Example 108, 5-(4-(((R)-4-((1-(6-(1-(4-cyano-3-(trifluoromethyl)phenyl)piperidine-4-carboxamido)pyridin-3-yl)piperidin-4-yl)methyl)-3-methylpiperazin-1-yl)methyl)piperidin-1-yl)-N-(2,6-dioxopiperidin-3-yl)picolinamide] | 51 | 85 | 89 | 
